Experimental data: PMC4118284 (Leukemia, 2012)
Like-named read-outs stand apart in the source and are kept apart here.

How the values were obtained:
[1] = test system: newly diagnosed patients with FLT3-mutant AML; details: sorafenib plus induction chemotherapy; 15 newly diagnosed patients with FLT3-mutant AML; cited from earlier work
[2] = test system: patients with FLT3-mutant and FLT3-wild-type AML; details: single agent, cited from earlier work; for Patients with ≥ 50% peripheral blood blast reduction: 75 mg three times daily or 50 mg or 100 mg twice daily
[3] = Plasma concentrations of midostaurin and metabolites; details: for Plasma concentration, Max / Plasma concentration, Median / Plasma concentration, Min: 50 mg BID
[4] = test system: newly diagnosed patients with acute myeloid leukemia (AML); assay: Phase 1b trial: efficacy; type: in vivo, human
[5] = test system: newly diagnosed patients with acute myeloid leukemia (AML); details: 50 mg twice daily; either arm
[6] = Concomitant (days 1-7 and 15-21), Induction cycle 1, day 1
[7] = Concomitant, First consolidation cycle, day 1.5
[8] = Concomitant, First consolidation cycle, day 15.5
[9] = Concomitant, First consolidation cycle, day 29.5
[10] = Concomitant, Induction cycle 1, Day 1 (+ 2 h)
[11] = Concomitant, Induction cycle 1, Day 1 (+ 4 h)
[12] = Concomitant, Induction cycle 1, day 2
[13] = Concomitant, Induction cycle 1, day 4
[14] = Concomitant, Induction cycle 1, day 15 (+ 2 h)
[15] = Concomitant, Induction cycle 1, day 15 (+ 4 h)
[16] = Sequential (days 8-21), Induction cycle 1, day 8
[17] = Sequential, First consolidation cycle, day 1.5
[18] = Sequential, First consolidation cycle, day 15.5
[19] = Sequential, First consolidation cycle, day 29.5
[20] = Sequential, Induction cycle 1, day 8 (+ 2 h)
[21] = Sequential, Induction cycle 1, day 8 (+ 4 h)
[22] = Sequential, Induction cycle 1, day 9
[23] = Sequential, Induction cycle 1, day 15
[24] = Sequential, Induction cycle 1, day 22.5
[25] = Sequential, Induction cycle 1, day 29.5

SMILES: CNC(=O)c1cc(Oc2ccc(NC(=O)Nc3ccc(Cl)c(C(F)(F)F)c3)cc2)ccn1 [Sorafenib]
- CR rate [1]: 93%

SMILES: CO[C@@H]1[C@H](N(C)C(=O)c2ccccc2)C[C@H]2O[C@]1(C)n1c3ccccc3c3c4c(c5c6ccccc6n2c5c31)C(=O)NC4 [midostaurin, Midostaurin]
- Patients with ≥ 50% peripheral blood blast reduction ([2]; FLT3-mutant (n = 55)): 70%
- Patients with ≥ 50% peripheral blood blast reduction ([2]; FLT3-wild-type (n = 60)): 42%
- Complete remissions (CRs) [2]: not observed
- Plasma concentration, Max [3, 6]: LLOQ
- Plasma concentration, Median [3, 6]: LLOQ
- Plasma concentration, Min [3, 6]: LLOQ
- Plasma concentration, Max [3, 7]: LLOQ
- Plasma concentration, Median [3, 7]: LLOQ
- Plasma concentration, Min [3, 7]: LLOQ
- Plasma concentration, Max [3, 8]: 1.04 µg/mL
- Plasma concentration, Min [3, 8]: LLOQ
- Plasma concentration, Max [3, 9]: 0.0838 µg/mL
- Plasma concentration, Median [3, 9]: LLOQ
- Plasma concentration, Min [3, 9]: LLOQ
- Plasma concentration, Max [3, 10]: 2.3 µg/mL
- Plasma concentration, Median [3, 10]: 1.17 µg/mL
- Plasma concentration, Min [3, 10]: 0.355 µg/mL
- Plasma concentration, Max [3, 11]: 3.38 µg/mL
- Plasma concentration, Median [3, 11]: 1.01 µg/mL
- Plasma concentration, Min [3, 11]: 0.63 µg/mL
- Plasma concentration, Max [3, 12]: 4.98 µg/mL
- Plasma concentration, Median [3, 12]: 1.49 µg/mL
- Plasma concentration, Min [3, 12]: LLOQ
- Plasma concentration, Max [3, 13]: 8.71 µg/mL
- Plasma concentration, Median [3, 13]: 2.355 µg/mL
- Plasma concentration, Min [3, 13]: 1.68 µg/mL
- Plasma concentration, Max [3, 14]: 7.3 µg/mL
- Plasma concentration, Median [3, 14]: 1.87 µg/mL
- Plasma concentration, Min [3, 14]: 0.0871 µg/mL
- Plasma concentration, Max [3, 15]: 7.12 µg/mL
- Plasma concentration, Median [3, 15]: 1.42 µg/mL
- Plasma concentration, Min [3, 15]: 0.0963 µg/mL
- Plasma concentration, Min ([3]; Concomitant, Induction cycle 1, day 22.5): LLOQ
- Plasma concentration, Min ([3]; Concomitant, Induction cycle 1, day 29.5): LLOQ
- Plasma concentration, Max [3, 16]: LLOQ
- Plasma concentration, Median [3, 16]: LLOQ
- Plasma concentration, Min [3, 16]: LLOQ
- Plasma concentration, Max [3, 17]: 0.0912 µg/mL
- Plasma concentration, Median [3, 17]: LLOQ
- Plasma concentration, Min [3, 17]: LLOQ
- Plasma concentration, Max [3, 18]: 3.79 µg/mL
- Plasma concentration, Median [3, 18]: 1.33 µg/mL
- Plasma concentration, Min [3, 18]: 0.635 µg/mL
- Plasma concentration, Max [3, 19]: 4 µg/mL
- Plasma concentration, Min [3, 19]: LLOQ
- Plasma concentration, Max [3, 20]: 2.88 µg/mL
- Plasma concentration, Median [3, 20]: 1.495 µg/mL
- Plasma concentration, Min [3, 20]: 0.46 µg/mL
- Plasma concentration, Max [3, 21]: 3.66 µg/mL
- Plasma concentration, Median [3, 21]: 1.585 µg/mL
- Plasma concentration, Min [3, 21]: 0.635 µg/mL
- Plasma concentration, Max [3, 22]: 3.29 µg/mL
- Plasma concentration, Median [3, 22]: 1.68 µg/mL
- Plasma concentration, Min [3, 22]: 0.922 µg/mL
- Plasma concentration, Max [3, 23]: 17.1 µg/mL
- Plasma concentration, Median [3, 23]: 3.66 µg/mL
- Plasma concentration, Min [3, 23]: 1.29 µg/mL
- Plasma concentration, Max [3, 24]: 19.2 µg/mL
- Plasma concentration, Median [3, 24]: 2.755 µg/mL
- Plasma concentration, Min [3, 24]: 0.904 µg/mL
- Plasma concentration, Max [3, 25]: 4.97 µg/mL
- Plasma concentration, Median [3, 25]: 0.0572 µg/mL
- Trough concentrations during off-treatment periods ([3]; midostaurin 50 mg twice daily): low or undetectable levels
- Kaplan-Meier OS probability ([4]; 50 mg twice daily, FLT3-mutant AML, 1 year): 0.85
- Kaplan-Meier OS probability ([4]; 50 mg twice daily, FLT3-mutant AML, 2 years): 0.62
- Complete remission (CR) rate ([4]; 50 mg twice daily, FLT3-mutant, 12 of 13 patients): 92%
- Kaplan-Meier OS probability ([4]; 50 mg twice daily, FLT3-wild-type AML, 1 year): 0.78
- Kaplan-Meier OS probability ([4]; 50 mg twice daily, FLT3-wild-type AML, 2 years): 0.52
- Complete remission (CR) rate ([4]; 50 mg twice daily, FLT3-wild-type, 20 of 27 patients): 74%
- Complete remission (CR) rate ([4]; 50 mg twice daily, concomitant group, 16 of 20 patients): 80%
- Patients who have died ([4]; 50 mg twice daily, of four patients with TKD mutations): none
- Complete remission (CR) rate ([4]; 50 mg twice daily, sequential group, 16 of 20 patients): 80%
- Complete remission rate ([4]; 100 mg twice daily (dose schedules I and II), 13 of 29 patients): 45%
- Patients surviving more than 4 years ([4]; 100 mg twice daily, FLT3-mutant blasts, two patients): 33%
- Complete remission rate ([4]; 100 mg twice daily, FLT3-wild-type blasts, 8 of 23): 35%
- Patients surviving more than 4 years ([4]; 100 mg twice daily, FLT3-wild-type blasts, nine patients): 39%
- Deaths on treatment or within 28 days of the last dose of study drug [5]: No deaths
